ChEMBL document CHEMBL1909046, “DrugMatrix in vitro pharmacology data”

How the values were obtained:
[1] = target: Beta-2 adrenergic receptor (Homo sapiens, UniProt P07550); experiment: DRUGMATRIX: Adrenergic beta2 radioligand binding (ligand: [3H] CGP-12177); format: cell membranes, Membrane; conditions: cho; Not Active = under 50% inhibition at 10 µM
[2] = DRUGMATRIX: Atrial Natriuretic Factor (ANF) radioligand binding (ligand: [125I] ANF (rat)); format: cell membranes, Cavia porcellus, Dunkin-Hartley, Adrenal gland, Membrane; conditions: Not Active = under 50% inhibition at 10 µM
[3] = target: T1, Calcitonin receptor (Homo sapiens, UniProt P30988); format: cell membranes, Membrane; conditions: t47d; also: in other assays of this panel Not Active means under 50% inhibition at 10 µM
T1 sequence (P30988 whole entry): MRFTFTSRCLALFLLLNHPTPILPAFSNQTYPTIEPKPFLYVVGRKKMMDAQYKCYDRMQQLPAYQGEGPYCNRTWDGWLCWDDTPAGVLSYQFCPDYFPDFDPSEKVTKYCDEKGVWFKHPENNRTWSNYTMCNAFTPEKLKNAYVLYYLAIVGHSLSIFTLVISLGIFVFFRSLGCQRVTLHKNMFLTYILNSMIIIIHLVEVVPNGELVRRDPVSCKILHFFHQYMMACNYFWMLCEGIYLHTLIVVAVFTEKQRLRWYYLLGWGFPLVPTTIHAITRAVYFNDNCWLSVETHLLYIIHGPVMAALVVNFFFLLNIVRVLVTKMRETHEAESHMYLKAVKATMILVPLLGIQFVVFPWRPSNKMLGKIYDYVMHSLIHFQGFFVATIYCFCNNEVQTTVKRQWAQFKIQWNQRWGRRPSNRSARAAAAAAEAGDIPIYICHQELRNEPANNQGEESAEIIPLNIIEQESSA

[4] = target: Vasopressin V1a receptor (Homo sapiens, UniProt P37288); format: cell membranes, Membrane; conditions: hek293; also: in other assays of this panel Not Active means under 50% inhibition at 10 µM
Sequence of Vasopressin V1a receptor (P37288 whole entry): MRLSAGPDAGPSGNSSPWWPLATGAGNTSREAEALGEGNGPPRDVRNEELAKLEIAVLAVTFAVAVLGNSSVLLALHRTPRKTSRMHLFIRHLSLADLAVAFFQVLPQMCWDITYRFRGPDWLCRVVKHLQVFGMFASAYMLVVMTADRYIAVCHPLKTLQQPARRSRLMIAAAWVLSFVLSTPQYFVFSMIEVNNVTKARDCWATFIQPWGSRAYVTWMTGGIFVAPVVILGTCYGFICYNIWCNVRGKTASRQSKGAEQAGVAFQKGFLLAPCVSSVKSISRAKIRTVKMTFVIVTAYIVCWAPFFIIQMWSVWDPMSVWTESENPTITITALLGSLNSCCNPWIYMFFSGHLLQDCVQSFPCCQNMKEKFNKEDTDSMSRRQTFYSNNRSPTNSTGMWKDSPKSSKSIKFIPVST

[5] = target: Nitric oxide synthase 1 (Rattus norvegicus, UniProt P29476); format: tissue-based, Cerebellum; also: in other assays of this panel Not Active means under 50% inhibition at 10 µM
Sequence of Nitric oxide synthase 1 (P29476 whole entry): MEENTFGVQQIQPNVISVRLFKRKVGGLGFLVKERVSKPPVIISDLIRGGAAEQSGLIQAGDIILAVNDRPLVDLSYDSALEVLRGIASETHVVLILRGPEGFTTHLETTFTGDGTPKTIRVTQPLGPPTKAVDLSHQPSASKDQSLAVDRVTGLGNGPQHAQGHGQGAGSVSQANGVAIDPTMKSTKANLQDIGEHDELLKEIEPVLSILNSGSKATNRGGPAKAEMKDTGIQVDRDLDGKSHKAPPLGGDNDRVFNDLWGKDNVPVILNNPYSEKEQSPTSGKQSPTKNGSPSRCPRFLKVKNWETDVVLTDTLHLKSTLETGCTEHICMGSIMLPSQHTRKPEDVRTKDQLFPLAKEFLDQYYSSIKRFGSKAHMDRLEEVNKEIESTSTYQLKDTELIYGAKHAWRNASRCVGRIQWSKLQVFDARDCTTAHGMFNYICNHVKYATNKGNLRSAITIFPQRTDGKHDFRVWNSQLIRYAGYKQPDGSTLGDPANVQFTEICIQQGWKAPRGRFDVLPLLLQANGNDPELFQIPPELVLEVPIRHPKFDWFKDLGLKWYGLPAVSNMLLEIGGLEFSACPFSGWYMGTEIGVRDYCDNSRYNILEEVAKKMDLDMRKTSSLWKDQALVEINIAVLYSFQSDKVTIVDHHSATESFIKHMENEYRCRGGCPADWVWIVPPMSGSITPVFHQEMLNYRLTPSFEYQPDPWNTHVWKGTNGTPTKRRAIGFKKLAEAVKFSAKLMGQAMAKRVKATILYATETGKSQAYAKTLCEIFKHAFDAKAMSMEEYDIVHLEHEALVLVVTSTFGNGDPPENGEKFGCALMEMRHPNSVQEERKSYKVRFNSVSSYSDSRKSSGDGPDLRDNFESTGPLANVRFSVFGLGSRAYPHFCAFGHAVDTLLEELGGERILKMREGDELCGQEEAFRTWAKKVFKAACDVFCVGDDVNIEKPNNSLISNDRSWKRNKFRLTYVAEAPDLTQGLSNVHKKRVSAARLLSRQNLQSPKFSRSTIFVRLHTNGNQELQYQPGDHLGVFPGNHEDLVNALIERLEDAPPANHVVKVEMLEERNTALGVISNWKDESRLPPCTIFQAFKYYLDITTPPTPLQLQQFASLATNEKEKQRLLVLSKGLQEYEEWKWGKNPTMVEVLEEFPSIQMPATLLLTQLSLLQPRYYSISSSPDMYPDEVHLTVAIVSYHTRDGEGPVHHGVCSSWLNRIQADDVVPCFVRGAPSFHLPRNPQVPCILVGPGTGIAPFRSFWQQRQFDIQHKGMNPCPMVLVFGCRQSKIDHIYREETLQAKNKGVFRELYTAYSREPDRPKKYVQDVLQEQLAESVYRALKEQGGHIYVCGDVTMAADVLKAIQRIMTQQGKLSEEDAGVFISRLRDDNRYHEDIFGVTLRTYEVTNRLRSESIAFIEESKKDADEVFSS

[6] = target: T2, Nitric oxide synthase, inducible (Mus musculus, UniProt P29477); design: species or system Escherichia coli;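 also: inhibition of iNOS enzyme activity measured with L-arginine as substrate; in other assays of this panel Not Active means under 50% inhibition at 10 µM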
T2 sequence (P29477 whole entry): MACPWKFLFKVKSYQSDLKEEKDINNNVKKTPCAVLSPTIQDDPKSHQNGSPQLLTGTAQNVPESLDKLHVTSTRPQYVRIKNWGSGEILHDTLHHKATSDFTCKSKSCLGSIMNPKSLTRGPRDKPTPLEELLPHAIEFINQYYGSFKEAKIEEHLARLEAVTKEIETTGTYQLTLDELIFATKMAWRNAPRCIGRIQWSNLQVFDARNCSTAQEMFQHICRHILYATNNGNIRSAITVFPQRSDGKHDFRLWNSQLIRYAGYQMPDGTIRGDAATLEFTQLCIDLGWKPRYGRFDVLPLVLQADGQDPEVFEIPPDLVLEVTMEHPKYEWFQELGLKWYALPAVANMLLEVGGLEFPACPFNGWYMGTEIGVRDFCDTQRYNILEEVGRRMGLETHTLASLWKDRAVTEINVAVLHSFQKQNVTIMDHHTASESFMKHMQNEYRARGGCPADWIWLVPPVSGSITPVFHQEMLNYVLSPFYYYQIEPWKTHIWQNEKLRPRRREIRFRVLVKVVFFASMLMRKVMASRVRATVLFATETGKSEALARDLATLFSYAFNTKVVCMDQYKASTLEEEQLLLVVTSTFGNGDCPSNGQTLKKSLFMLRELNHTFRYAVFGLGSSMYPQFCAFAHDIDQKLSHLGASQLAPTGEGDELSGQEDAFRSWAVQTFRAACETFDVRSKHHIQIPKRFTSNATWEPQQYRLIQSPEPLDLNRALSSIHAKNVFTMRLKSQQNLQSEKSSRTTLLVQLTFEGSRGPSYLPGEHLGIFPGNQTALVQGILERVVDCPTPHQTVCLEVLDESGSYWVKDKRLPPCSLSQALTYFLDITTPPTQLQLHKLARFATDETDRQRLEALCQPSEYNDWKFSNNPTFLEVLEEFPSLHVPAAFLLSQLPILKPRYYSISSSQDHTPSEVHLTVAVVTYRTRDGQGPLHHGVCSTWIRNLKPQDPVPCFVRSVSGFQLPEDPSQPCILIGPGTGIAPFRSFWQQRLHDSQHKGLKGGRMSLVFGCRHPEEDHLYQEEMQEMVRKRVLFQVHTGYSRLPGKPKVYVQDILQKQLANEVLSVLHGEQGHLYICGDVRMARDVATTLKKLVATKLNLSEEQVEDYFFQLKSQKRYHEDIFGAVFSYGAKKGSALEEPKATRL

[7] = DRUGMATRIX: Phorbol Ester radioligand binding (ligand: [3H] PDBu); format: cell membranes, Mus musculus, ICR, Brain, Membrane; conditions: Not Active = under 50% inhibition at 10 µM
[8] = DRUGMATRIX: Potassium Channel [KATP] radioligand binding (ligand: [3H] Glyburide); format: cell membranes, Membrane; conditions: hit-t15; Not Active = under 50% inhibition at 10 µM
[9] = target: T3, 5-hydroxytryptamine receptor 1A (Rattus norvegicus, UniProt P19327); format: cell membranes, Membrane; conditions: cho-k1; also: in other assays of this panel Not Active means under 50% inhibition at 10 µM
T3 sequence (P19327 whole entry): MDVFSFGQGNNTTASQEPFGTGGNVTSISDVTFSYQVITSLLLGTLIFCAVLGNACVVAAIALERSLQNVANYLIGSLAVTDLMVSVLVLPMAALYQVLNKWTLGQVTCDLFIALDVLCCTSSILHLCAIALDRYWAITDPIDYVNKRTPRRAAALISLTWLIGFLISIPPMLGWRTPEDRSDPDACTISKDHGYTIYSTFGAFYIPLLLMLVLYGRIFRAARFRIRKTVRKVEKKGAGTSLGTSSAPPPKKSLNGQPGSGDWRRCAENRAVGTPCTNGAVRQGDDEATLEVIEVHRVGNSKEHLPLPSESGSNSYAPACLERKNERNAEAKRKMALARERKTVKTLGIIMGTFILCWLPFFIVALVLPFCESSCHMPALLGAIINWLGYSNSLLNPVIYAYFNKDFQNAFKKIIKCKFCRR

[10] = target: Adenosine receptor A2a (Homo sapiens, UniProt P29274); experiment: DRUGMATRIX: Adenosine A2A radioligand binding (ligand: […]); format: cell membranes, HEK293, Membrane; conditions: hek293; Not Active = under 50% inhibition at 10 µM
Sequence of Adenosine receptor A2a (P29274 whole entry): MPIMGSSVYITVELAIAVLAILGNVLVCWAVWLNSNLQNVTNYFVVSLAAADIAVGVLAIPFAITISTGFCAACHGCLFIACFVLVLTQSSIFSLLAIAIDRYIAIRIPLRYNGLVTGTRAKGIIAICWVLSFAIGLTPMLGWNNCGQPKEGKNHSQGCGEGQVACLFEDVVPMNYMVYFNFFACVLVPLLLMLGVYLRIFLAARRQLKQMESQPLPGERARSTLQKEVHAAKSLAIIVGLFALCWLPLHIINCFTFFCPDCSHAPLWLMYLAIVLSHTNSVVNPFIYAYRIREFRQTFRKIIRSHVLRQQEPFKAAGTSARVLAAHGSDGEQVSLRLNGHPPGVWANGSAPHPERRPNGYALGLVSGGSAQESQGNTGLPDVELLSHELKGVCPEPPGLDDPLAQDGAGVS

[11] = target: Voltage-gated inwardly rectifying potassium channel KCNH2 (Homo sapiens, UniProt Q12809); conditions: hek293; also: in other assays of this panel Not Active means under 50% inhibition at 10 µM
Sequence of Voltage-gated inwardly rectifying potassium channel KCNH2 (Q12809 whole entry): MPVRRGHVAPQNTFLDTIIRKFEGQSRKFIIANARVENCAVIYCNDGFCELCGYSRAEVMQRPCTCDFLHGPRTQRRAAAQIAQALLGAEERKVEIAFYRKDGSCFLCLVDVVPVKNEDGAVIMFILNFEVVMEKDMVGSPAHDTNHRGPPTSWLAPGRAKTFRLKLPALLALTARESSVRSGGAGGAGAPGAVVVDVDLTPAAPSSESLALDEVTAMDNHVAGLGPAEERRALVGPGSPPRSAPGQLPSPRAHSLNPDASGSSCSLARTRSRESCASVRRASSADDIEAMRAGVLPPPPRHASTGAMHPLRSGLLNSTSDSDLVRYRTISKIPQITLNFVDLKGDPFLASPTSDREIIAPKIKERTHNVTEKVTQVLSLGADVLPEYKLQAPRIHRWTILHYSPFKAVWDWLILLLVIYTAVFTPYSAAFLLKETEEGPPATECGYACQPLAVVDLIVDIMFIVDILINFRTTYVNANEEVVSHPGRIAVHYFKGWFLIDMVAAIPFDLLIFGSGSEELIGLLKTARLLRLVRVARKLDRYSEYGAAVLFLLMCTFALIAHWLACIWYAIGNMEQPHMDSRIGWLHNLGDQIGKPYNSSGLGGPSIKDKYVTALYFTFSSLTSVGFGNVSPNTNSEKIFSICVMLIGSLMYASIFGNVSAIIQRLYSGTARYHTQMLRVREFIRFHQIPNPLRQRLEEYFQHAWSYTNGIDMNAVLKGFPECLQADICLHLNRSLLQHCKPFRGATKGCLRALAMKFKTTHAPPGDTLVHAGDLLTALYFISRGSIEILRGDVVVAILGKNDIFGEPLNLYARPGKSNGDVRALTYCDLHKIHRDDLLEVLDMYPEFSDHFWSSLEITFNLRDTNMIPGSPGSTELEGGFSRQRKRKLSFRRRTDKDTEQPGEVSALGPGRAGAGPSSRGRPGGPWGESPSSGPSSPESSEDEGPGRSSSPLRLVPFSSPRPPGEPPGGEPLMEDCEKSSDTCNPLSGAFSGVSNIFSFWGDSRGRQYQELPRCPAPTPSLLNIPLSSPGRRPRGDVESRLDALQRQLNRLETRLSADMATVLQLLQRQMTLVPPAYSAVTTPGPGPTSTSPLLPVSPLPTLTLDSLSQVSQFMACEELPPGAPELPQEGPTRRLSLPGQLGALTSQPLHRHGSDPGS

Sequence of Beta-2 adrenergic receptor (P07550 whole entry): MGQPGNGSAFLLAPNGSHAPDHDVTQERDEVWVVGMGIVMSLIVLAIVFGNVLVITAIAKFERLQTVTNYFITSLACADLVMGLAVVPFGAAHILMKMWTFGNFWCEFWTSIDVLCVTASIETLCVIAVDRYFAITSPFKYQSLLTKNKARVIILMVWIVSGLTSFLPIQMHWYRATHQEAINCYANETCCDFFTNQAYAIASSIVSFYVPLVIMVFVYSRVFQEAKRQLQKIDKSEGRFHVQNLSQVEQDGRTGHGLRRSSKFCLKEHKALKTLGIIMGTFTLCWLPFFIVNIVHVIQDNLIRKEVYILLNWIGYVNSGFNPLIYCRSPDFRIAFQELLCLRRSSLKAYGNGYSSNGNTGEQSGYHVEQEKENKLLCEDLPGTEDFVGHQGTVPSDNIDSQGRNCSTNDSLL

CC[C@]1(O)C[C@@H]2CN(CCc3c([nH]c4ccccc34)[C@@](C(=O)OC)(c3cc4c(cc3OC)N(C)[C@H]3[C@@](O)(C(=O)OC)[C@H](OC(C)=O)[C@]5(CC)C=CCN6CC[C@]43[C@@H]65)C2)C1 [VINBLASTINE]
Not Active: IC50 [1] | IC50 [2] | Ki [2] | IC50 [3] | IC50 [4] | IC50 [5] | IC50 [6] | IC50 [7] | Ki [7] | IC50 [8] | Ki [8] | IC50 [9] | IC50 [10] | IC50 [11] | Ki [11]

CC(=O)CC(c1ccccc1)c1c(O)c2ccccc2oc1=O (stereo not given) [WARFARIN]
Not Active: IC50 [1] | IC50 [2] | Ki [2] | IC50 [3] | IC50 [4] | IC50 [5] | IC50 [6] | IC50 [7] | Ki [7] | IC50 [8] | Ki [8] | IC50 [9] | IC50 [10] | IC50 [11] | Ki [11]

[Cl-].[Cl-].[Zn+2] [ZINC CHLORIDE]
Not Active: IC50 [1] | IC50 [2] | Ki [2] | IC50 [3] | IC50 [4] | IC50 [5] | IC50 [6] | IC50 [7] | Ki [7] | IC50 [8] | Ki [8] | IC50 [9] | IC50 [10] | IC50 [11] | Ki [11]
